Reference: ChEMBL document CHEMBL1177677, “Tryptamine-derived alkaloids from Annonaceae exerting neurotrophin-like properties on primary dopaminergic neurons” (Bioorg Med Chem, 2010)

Tests used:
Neuron [1] = test: Antioxidant activity in mesecephalic neuron assessed as ROS production at 10 nM by dihydrorhodamine-123 incorporation assay relative to control; assay type: functional
Neuron [2] = test: Neuritogenic effect in rat DA neurons assessed as total neurite length per […] immunopositive neurons at 10 nM relative to control; assay type: functional
[3] = Antioxidant activity assessed as ABTS radical scavenging activity; assay type: functional
Neuron [4] = test: Neuroprotective activity against degeneration of rat DA neurons assessed as […] immunopositive neurons at 10 nM by immunofluorescence staining relative to control; assay type: functional
Mus musculus = species: Mus musculus; test: Toxicity in Swiss mouse assessed as change in body weight, food intake; assay type: organism-based; settings: in vivo
Brain = test: Biodistribution in Swiss mouse brain at 150 mg/kg, iv; assay type: ADME, organism-based; design: dose 150 mg/kg, route intravenous; settings: in vivo
Neuron [5] = test: Neuroprotective activity against degeneration of rat DA neurons assessed as […] immunopositive neurons immunofluorescence staining at 200 nM relative to control; assay type: functional
Neuron [6] = test: Neuritogenic effect in rat DA neurons assessed as total neurite length per […] immunopositive neurons at 200 nM relative to control; assay type: functional
Neuron [7] = test: Antioxidant activity in mesecephalic neuron assessed as ROS production at 10 uM by dihydrorhodamine-123 incorporation assay relative to control; assay type: functional

| SMILES | Activity (Neuron [1]) [%] | Activity (Neuron [2]) [%] | IC50 [3] [µM] | Activity (Neuron [4]) [%] | further results |
| --- | --- | --- | --- | --- | --- |
| O=C(CCCCCCCCCCCCCCO)NCCc1c[nH]c2ccccc12 | 60.9 | 159.3 | > 1000 | 108 | – |
| CCCCCCCCCCCCCCCCCCNCCc1c[nH]c2ccccc12 | – | 157.3 | – | 129.9 | – |
| CCCCC/C=C\C/C=C\CCCCCCCCNCCc1c[nH]c2ccccc12 | 44 | 156.7 | 340 | 137.5 | – |
| CCCCCCCCCCCCCCCCC(=O)NCCc1c[nH]c2ccccc12 | – | 136 | – | 106 | – |
| CCCCCCCCCCCCCCCCCNCCc1c[nH]c2ccccc12 | – | 139 | – | 110.6 | – |
| CCCCCCCCCCCCCNCCc1c[nH]c2ccccc12 | – | 121.2 | 810 | 92.8 | – |
| CCCCCCCCCCCCCCCCNCCc1c[nH]c2ccccc12 | 47.8 | 197 | 620 | 131.9 | Activity (Mus musculus): Non-toxic; Drug uptake (Brain): 21.8 ng/mL |
| CCCC(=O)Nc1ncnc2c1ncn2[C@@H]1O[C@@H]2COP(=O)(O)O[C@H]2[C@H]1OC(=O)CCC [BUCLADESINE] | – | – | – | – | Activity (Neuron [5]): 149.9%; Activity (Neuron [6]): 333.1% |
| CCCCCCCCCCCCCCCNCCc1c[nH]c2ccccc12 | – | 132.7 | – | 106 | – |
| OCCCCCCCCCCCCCCCNCCc1c[nH]c2ccccc12 | 43.7 | 160.8 | 730 | 129.4 | – |
| CCCCCCCCCCCCCCCCCCCCCCCNCCc1c[nH]c2ccccc12 | – | 141.2 | 670 | 129.6 | – |
| CCCCCCCCCCCCCCCCCCCCNCCc1c[nH]c2ccccc12 | – | 132.6 | – | 128.9 | – |
| CCCCCCCCCCCCCCCCCCCCCCC(=O)NCCc1c[nH]c2ccccc12 | – | 145.4 | – | 114 | – |
| Cc1c(C)c2c(c(C)c1O)CCC(C)(C(=O)O)O2 (stereo unspecified) [TROLOX] | – | – | 550 | – | Activity (Neuron [7]): 44% |
| CCCCCCCCCCCCCCCC(=O)NCCc1c[nH]c2ccccc12 | 55.9 | 168.6 | > 1000 | 121.3 | – |
| CCCCCCCCCCCCC(=O)NCCc1c[nH]c2ccccc12 | – | 126.2 | > 1000 | 98.5 | – |
| CCCCCCCCCCCCCCC(=O)NCCc1c[nH]c2ccccc12 | – | 139 | – | 99.3 | – |
| CCCCC/C=C\C/C=C\CCCCCCCC(=O)NCCc1c[nH]c2ccccc12 | 56.5 | 154 | – | 111.4 | – |
| CCCCCCCCCCCCCCCCCCCC(=O)NCCc1c[nH]c2ccccc12 | – | 147.4 | – | 121.8 | – |
| CCCCCCCCCCCCCCCCCC(=O)NCCc1c[nH]c2ccccc12 | – | 149.9 | – | 110 | – |
